The record followed here is patent US7168937B2, “Method for the enzymatic resolution of the racemates of aminomethyl-aryl-cyclohexanol derivatives” (Gruenenthal GmbH, priority 2000, dated 2007).

SMILES strings stand for the structures. Where two headings read alike, the source gives them in different places.

Type in all cases: physicochemical
Data set [1] in a line: logP and logD values water/cyclohexane. The conditions noted are these: for ΔlogP value at pH 7.4: difference of logP water/octanol and water/cyclohexane; for ΔlogD value at pH 7.4: pH 7.4, difference of logD water/octanol and water/cyclohexane.
Data set [2] is described as follows: pKa values of the compounds 1 and 2.
Data set [3] can be described thus: logP and logD values water/octanol. The conditions noted are these: for logD: pH 7.4, water/octanol; for logP: water/octanol.
The mark [4] stands for this setting: pH 7.4, water/cyclohexane, read-out: logD value at pH 7.4 water/cyclohexane.
The mark [5] stands for this setting: water/cyclohexane, read-out: logP value: water/cyclohexane.

Turning to `CCCC(=O)O[C@H]1CC[C@](O)(c2cccc(OC)c2)[C@@H](CN(C)C)C1` (racemic) [Compound 1, (1SR,3RS,4RS)-butyric acid 3-dimethylaminomethyl-4-hydroxy-4-(3-methoxy-phenyl)-cyclohexyl ester], in data set [1], the “ΔlogP value at pH 7.4” value was determined as 0.538 and the “ΔlogD value at pH 7.4” value was found to be 0.538. In addition, the logD hydrocarbon water in data set [1] (setting [4]) came out at 0.946. For the same compound, the logD hydrocarbon water in data set [1] (setting [5]) is 2.36. Besides, the pKa in data set [2] is 8.8. In data set [3], this compound gave a logD of 1.48 and a logP of 2.9.

On to `COc1cccc([C@@]2(O)CC[C@H](O)C[C@@H]2CN(C)C)c1` (racemic) [Compound 2, (1RS,2RS,4SR)-2-dimethylaminomethyl-1-(3-methoxy-phenyl)-cyclohexane-1,4-diol], for which, in data set [1], the “ΔlogP value at pH 7.4” value was found to be 1.733 and the “ΔlogD value at pH 7.4” value is recorded as 1.733. In addition, the logD hydrocarbon water in data set [1] (setting [4]) is -2.3. In addition, the logD hydrocarbon water in data set [1] (setting [5]) is -0.632. The pKa in data set [2] worked out at 9.05. In data set [3], this compound yielded a logD of -0.564 and a logP of 1.1.
